According to patent publication US20250268903A1, “RXFP1 AGONISTS” (BRISTOL-MYERS SQUIBB COMPANY, priority 2021, published 2025):

Target: T1, human RXFP1 (Homo sapiens, UniProt Q9HBX9)
T1 construct: expressed in transfected cells
T1 sequence (Q9HBX9 1-757): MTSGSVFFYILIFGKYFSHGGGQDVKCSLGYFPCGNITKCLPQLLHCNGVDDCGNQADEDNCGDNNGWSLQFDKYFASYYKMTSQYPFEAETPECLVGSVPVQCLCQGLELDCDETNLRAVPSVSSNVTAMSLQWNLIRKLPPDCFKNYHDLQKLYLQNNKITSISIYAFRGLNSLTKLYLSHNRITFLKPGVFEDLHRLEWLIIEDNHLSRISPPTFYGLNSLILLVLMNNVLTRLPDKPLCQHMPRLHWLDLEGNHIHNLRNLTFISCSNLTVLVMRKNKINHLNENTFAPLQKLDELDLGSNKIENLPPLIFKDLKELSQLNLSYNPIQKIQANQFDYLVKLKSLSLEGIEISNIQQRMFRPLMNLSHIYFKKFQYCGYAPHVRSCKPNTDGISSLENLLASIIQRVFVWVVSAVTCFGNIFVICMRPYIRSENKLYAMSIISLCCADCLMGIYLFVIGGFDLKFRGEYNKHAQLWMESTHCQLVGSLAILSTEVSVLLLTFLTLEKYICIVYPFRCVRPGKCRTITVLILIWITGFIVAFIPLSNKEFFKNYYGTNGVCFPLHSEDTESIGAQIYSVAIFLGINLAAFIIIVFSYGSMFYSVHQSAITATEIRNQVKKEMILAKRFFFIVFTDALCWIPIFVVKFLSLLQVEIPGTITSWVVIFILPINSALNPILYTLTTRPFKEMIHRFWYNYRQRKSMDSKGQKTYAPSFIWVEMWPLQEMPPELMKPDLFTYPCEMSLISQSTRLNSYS
Assay: hRXFP1 HEK293 cAMP assay (HTRF)
Type: cell-based
Conditions: HEK293 cells stably expressing human RXFP1, 30 min at room temperature
Method in brief: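 HEK293 cells stably expressing human RXFP1 (1500 cells/well) in HBSS/20 mM HEPES/0.05% BSA/0.5 mM IBMX. Compounds were tested at 0.010 nM–50 μM final (2% DMSO) for 30 min at room temperature. cAMP was measured by HTRF and values derived by 4-parameter logistic fit.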

Q: With `COc1ccc(COCC2COC2)cc1C(=O)N[C@H]1[C@@H](C(=O)Nc2ccc(F)c(C(F)(F)F)c2)[C@H]2CC[C@@H]1/C2=C\C(F)(F)F` [Example 284, (1R,2S,3R,4R,7Z)-N-[4-fluoro-3-(trifluoromethyl)phenyl]-3-(2-methoxy-5-{[(oxetan-3-yl)methoxy]methyl}benzamido)-7-(2,2,2-trifluoroethylidene) bicyclo[2.2.1] heptane-2-carboxamide] as the molecule, how does the EC50 read?
A: 161 nM

Q: Which EC50 does the source give for `COc1ccc(C(=O)NCC(C)(C)C)cc1C(=O)N[C@H]1[C@@H](C(=O)Nc2ccc(F)c(C(F)(F)F)c2)[C@H]2CC[C@@H]1/C2=C\C1CC1` [Example 238, N3-[(1R,2R,3S,4R,7Z)-7-(cyclopropyl-methylidene)-3-{[4-fluoro-3-(trifluoromethyl)phenyl]carbamoyl}bicyclo[2.2.1]heptan-2-yl]-N1-(2,2-dimethylpropyl)-4-methoxybenzene-1,3-dicarboxamide] here?
A: 14 nM

Q: With `COc1ccc(/C=C/C(=O)NCCO)cc1C(=O)N[C@@H]1C2CCC(/C2=C/C(F)(F)F)[C@@H]1C(=O)Nc1ccc(F)c(C(F)(F)F)c1` (stereo partly drawn) [Example 133, (2S,3R,7Z)-N-[4-fluoro-3-(trifluoromethyl)phe-nyl]-3-{5-[(1E)-2-[(2-hydroxyethyl)carba-moyl]eth-1-en-1-yl]-2-methoxybenzamido}-7-(2,2,2-trifluoroethylidene)bi-cyclo[2.2.1]heptane-2-carboxamide] as the molecule, how does the EC50 read?
A: 384 nM

Q: With `COc1ccc(COCC2CC(F)(F)C2)cc1C(=O)N[C@H]1[C@@H](C(=O)Nc2ccc(F)c(C(F)(F)F)c2)[C@H]2CC[C@@H]1/C2=C\C1CC1` [Example 283, (1R,2S,3R,4R,7Z)-7-(cyclopropyl-methylidene)-3-(5-{[(3,3-difluorocyclobutyl)methoxy]methyl}-2-methoxybenzamido)-N-[4-fluoro-3-(trifluoromethyl)phenyl] bicyclo[2.2.1] heptane-2-carboxamide] as the molecule, how does the EC50 read?
A: 110 nM

Q: Which EC50 does the source give for `COc1ccc([C@H]2C[C@H](O)C2)cc1C(=O)N[C@H]1[C@@H](C(=O)Nc2ccc(F)c(C(F)(F)F)c2)[C@H]2CC[C@@H]1/C2=C\C1CC1` [Example 277, (1R,2S,3R,4R,7Z)-7-(cyclopropylmethyl-idene)-N-[4-fluoro-3-(trifluoromethyl)phenyl]-3-{2-methoxy-5-[(1r,3r)-3-hydroxycyclobutyl]benzamido} bicyclo [2.2.1]heptane-2-carboxamide] here?
A: 7.25 nM

Q: Which EC50 does the source give for `COc1ccc(C#C[C@@H](C)O)cc1C(=O)N[C@@H]1C2CCC(/C2=C/C(F)(F)F)[C@@H]1C(=O)Nc1ccc(F)c(C(F)(F)F)c1` (stereo partly drawn) [Example 72, (2S,3R,7Z)-N-[4-fluoro-3-(trifluoromethyl)phe-nyl]-3-{5-[(3R)-3-hydroxybut-1-yn-1-yl]-2-methoxybenzamido}-7-(2,2,2-trifluoroethylidene)bi-cyclo[2.2.1]heptane-2-carboxamide] here?
A: 134 nM

Q: With `COc1ccc(C2CC2C(=O)N2CCC(O)CC2)cc1C(=O)N[C@H]1[C@@H](C(=O)Nc2ccc(F)c(C(F)(F)F)c2)[C@H]2CC[C@@H]1/C2=C\C1CC1` (single isomer, unassigned) [Example 321] as the molecule, how does the EC50 read?
A: 28.5 nM

Q: Which EC50 does the source give for `COc1ccc(C#CCOC(=O)Nc2ccccc2)cc1C(=O)N[C@@H]1C2CCC(/C2=C/C(F)(F)F)[C@@H]1C(=O)Nc1ccc(F)c(C(F)(F)F)c1` (stereo partly drawn) [Example 69, 3-(3-{[(2R,3S,7Z)-3-{[4-fluoro-3-(trifluoromethyl)phe-nyl]carbamoyl}-7-(2,2,2-trifluoroethylidene)bi-cyclo[2.2.1]heptan-2-yl]carbamoyl}-4-methoxyphenyl)prop-2-yn-1-yl N-phenylcarbamate] here?
A: 95 nM

Q: Which EC50 does the source give for `COc1ccc(C(=O)N2C3CCC2COC3)cc1C(=O)N[C@H]1[C@@H](C(=O)Nc2ccc(F)c(C(F)(F)F)c2)[C@H]2CC[C@@H]1/C2=C\C1CC1` [Example 258, (1R,2S,3R, 4R,7Z)-7-(cyclopropyl-methylidene)-N-[4-fluoro-3-(trifluoromethyl)phenyl]-3-(2-methoxy-5-{3-oxa-8-azabicyclo [3.2.1]octane-8-carbonyl}benzamido) bicyclo[2.2.1] heptane-2-carboxamide] here?
A: 32.9 nM

Q: `COc1ccc(C2CC2CO)cc1C(=O)N[C@@H]1C2CCC(/C2=C/C(F)(F)F)[C@@H]1C(=O)Nc1ccc(F)c(C(F)(F)F)c1` (single isomer, unassigned) [Example 65] was tested. Which EC50 did it give?
A: 250 nM

Q: Which EC50 does the source give for `COc1ccc(/C=C/C(=O)N2CCO[C@@H](CO)C2)cc1C(=O)N[C@H]1[C@@H](C(=O)Nc2ccc(F)c(C(F)(F)F)c2)[C@H]2CC[C@@H]1/C2=C\C(F)(F)F` [Example 310] here?
A: 87 nM

Q: How did the EC50 turn out when `COc1ccc(C2CC2C(=O)N2CCC(O)CC2)cc1C(=O)N[C@H]1[C@@H](C(=O)Nc2ccc(F)c(C(F)(F)F)c2)[C@H]2CC[C@@H]1/C2=C\C(F)(F)F` (single isomer, unassigned) [Example 323] was run?
A: 21.5 nM

Q: For `COc1ccc(C#C[C@H](C)O)cc1C(=O)N[C@@H]1C2CCC(/C2=C/C(F)(F)F)[C@@H]1C(=O)Nc1ccc(F)c(C(F)(F)F)c1` (stereo partly drawn) [Example 71, (2S,3R,7Z)-N-[4-fluoro-3-(trifluoromethyl)phe-nyl]-3-{5-[(3S)-3-hydroxybut-1-yn-1-yl]-2-methoxybenzamido}-7-(2,2,2-trifluoroethylidene)bi-cyclo[2.2.1]heptane-2-carboxamide], which EC50 is on record?
A: 118 nM

Q: `COc1ccc(/C=C/C(=O)N(C)CCO)cc1C(=O)N[C@H]1[C@@H](C(=O)Nc2ccc(F)c(C(F)(F)F)c2)[C@H]2CC[C@@H]1/C2=C\C1CC1` [Example 302, (1R,2S,3R,4R,7Z)-7-(cyclopropyl-methylidene)-N-[4-fluoro-3-(trifluoromethyl)phenyl]-3-{5-[(1E)-2-[(2-hydroxyethyl) (methyl)carbamoyl]eth-1-en-1-yl]-2-methoxybenzamido} bicyclo[2.2.1]heptane-2-carboxamide] was tested. Which EC50 did it give?
A: 16.3 nM

Q: With `COc1ccc(C2CCCC(O)C2)cc1C(=O)N[C@@H]1C2CCC(/C2=C/C(F)(F)F)[C@@H]1C(=O)Nc1ccc(F)c(C(F)(F)F)c1` (single isomer, unassigned) [Example 36] as the molecule, how does the EC50 read?
A: 442 nM

Q: For `COc1ccc(/C=C/C(=O)N2CCC(S(C)(=O)=O)CC2)cc1C(=O)N[C@H]1[C@@H](C(=O)Nc2ccc(F)c(C(F)(F)F)c2)[C@H]2CC[C@@H]1/C2=C\C1CC1` [Example 317, (1R,2S,3R,4R,7Z)-7-(cyclopropyl-methylidene)-N-[4-fluoro-3-(trifluoromethyl)phenyl]-3-{5-[(1E)-3-(4-methanesulfonyl-piperidin-1-yl)-3-oxoprop-1-en-1-yl]-2-methoxybenzamido} bicyclo[2.2.1]heptane-2-carboxamide], which EC50 is on record?
A: 140 nM

Q: How did the EC50 turn out when `COc1ccc(CCC(C)C)cc1C(=O)N[C@@H]1C2CCC(/C2=C/C(F)(F)F)[C@@H]1C(=O)Nc1ccc(F)c(C(F)(F)F)c1` (some centres unmarked) [Example 83] was run?
A: 1710 nM

Q: With `COc1ccc(C2CCC(O)CC2)cc1C(=O)NC1C2CCC(/C2=C/C(F)(F)F)[C@@H]1C(=O)Nc1ccc(F)c(C(F)(F)F)c1` (single isomer, unassigned) [Example 52] as the molecule, how does the EC50 read?
A: 276 nM

Q: Which EC50 does the source give for `COc1ccc(CCC(N)=O)cc1C(=O)NC1C2CCC(/C2=C/C(F)(F)F)[C@@H]1C(=O)Nc1ccc(F)c(C(F)(F)F)c1` (stereo partly drawn) [Example 140, (2S,3R,7Z)-3-[5-(2-carbamoylethyl)-2-methoxybenzamido]-N-[4-fluoro-3-(trifluoromethyl)phe-nyl]-7-(2,2,2-trifluoroethylidene)bi-cyclo[2.2.1]heptane-2-carboxamide] here?
A: 736 nM

Q: With `COCC/C=C1\C2CCC1[C@H](C(=O)Nc1ccc(F)c(C(F)(F)F)c1)C2NC(=O)c1cc(CCCO)ccc1OC` (some centres unmarked) [Example 161, (7Z)-N-[4-fluoro-3-(trifluoromethyl)phe-nyl]-3-[5-(3-hydroxypropyl)-2-methoxybenzamido]-7-(3-methoxypropylidene) bicyclo[2.2.1]heptane-2-carboxamide] as the molecule, how does the EC50 read?
A: 1160 nM

Q: With `COc1ccc(C2CCCC(O)C2)cc1C(=O)N[C@@H]1C2CCC(/C2=C/C(F)(F)F)[C@@H]1C(=O)Nc1ccc(F)c(C(F)(F)F)c1` (single isomer, unassigned) [Example 37] as the molecule, how does the EC50 read?
A: 780 nM

Q: With `COC(=O)C1CC2(C1)CC(c1ccc(OC)c(C(=O)N[C@@H]3C4CCC(/C4=C/C(F)(F)F)[C@@H]3C(=O)Nc3ccc(F)c(C(F)(F)F)c3)c1)C2` (single isomer, unassigned) [Example 149] as the molecule, how does the EC50 read?
A: 857 nM

Q: With `COc1ccc(COC2CCC(O)CC2)cc1C(=O)N[C@H]1[C@@H](C(=O)Nc2ccc(F)c(C(F)(F)F)c2)[C@H]2CC[C@@H]1/C2=C\C1CC1` (stereo partly drawn) [Example 290, (1R,2S,3R,4R,7Z)-7-(cyclopropyl-methylidene)-N-[4-fluoro-3-(trifluoromethyl)phenyl]-3-(5-{[(4-hydroxycyclohexyl)oxy]methyl}-2-methoxybenzamido) bicyclo[2.2.1]heptane-2-carboxamide] as the molecule, how does the EC50 read?
A: 76.6 nM
